Results taken from patent US20020048549A1, “Radioactive transition metal nitride heterocomplex” (priority 1996, published 2002).
Like-named read-outs stand apart in the source and are kept apart here.

Assay: Biodistribution of 99mTc(N)(X)(DTC)+ heterocomplexes in rats
Assay type: in vivo, male Spraque-Dawley rats (SD rats)
Procedure: The biodistribution of a ^99mTc nitride heterocomplex represented by the general formula ^99mTc(N)(X)(Y) was investigated as follows: ^99mTc nitride heterocomplexes were synthesized using DTC as a bidentate ligand Y and each of the diphosphine compounds X described below, and the biodistribution in rats of each heterocomplex was investigated.
Before being injected into rats, the contents of the vial were diluted with phosphate buffer (0.1 mol/dm^3, pH=7.06) containing 10% Tween 80 ([…]). The complexes were stable in the solutions and in human plasma for at least 6 hours.
The biodistribution was measured using male Spraque-Dawley rats (SD rats) weighing 200 to 250 g. After 24 hours fasting, the rats were put under intraperitoneal anesthesia and given an injection in the jugular vein. Then, the organs were excised from the rats at different intervals of time, washed and then weighed. In addition, blood samples were collected and then weighed. The data on the biodistribution are expressed as the mean±significant difference of the percentage of radioactivity level per gram of the organ weight based on the dose of radioactivity, (% dose/g). The measurement was carried out using groups of 5 rats each.

COCCC[P]1(CCCOC)CCN(CCOC)CC[P](CCCOC)(CCCOC)[99Tc+]12(#[N])[NH]N(C)C(SC)=[S]2 [^99mTc(N)(PNP3)(DTC)^+]
Bone % dose/g: 0.198 ± 0.03 % dose/g
Heart % dose/g: 2.704 ± 0.03 % dose/g
Liver % dose/g: 1.5 ± 0.02 % dose/g
Spleen % dose/g: 1.686 ± 0.03 % dose/g
Blood % dose/g (0 min after injection): 1.149 ± 0.04 % dose/g
Brain % dose/g (0 min after injection): 0.096 ± 0.00 % dose/g
Intestine % dose/g (0 min after injection): 2.578 ± 0.350 % dose/g
Kidney % dose/g (0 min after injection): 8.289 ± 0.03 % dose/g
Lung % dose/g (0 min after injection): 2.133 ± 0.03 % dose/g
Muscle % dose/g (0 min after injection): 0.232 ± 0.07 % dose/g
Stomach % dose/g (0 min after injection): 1.121 ± 0.01 % dose/g
Blood % dose/g (2 min after injection): 0.421 ± 0.10 % dose/g
Bone % dose/g (2 min after injection): 2.242 ± 0.02 % dose/g
Brain % dose/g (2 min after injection): 0.035 ± 0.01 % dose/g
Heart % dose/g (2 min after injection): 3.007 ± 0.16 % dose/g
Intestine % dose/g (2 min after injection): 4.188 ± 0.60 % dose/g
Kidney % dose/g (2 min after injection): 9.676 ± 0.620 % dose/g
Liver % dose/g (2 min after injection): 2.778 ± 0.06 % dose/g
Lung % dose/g (2 min after injection): 0.995 ± 0.17 % dose/g
Muscle % dose/g (2 min after injection): 0.264 ± 0.09 % dose/g
Spleen % dose/g (2 min after injection): 1.215 ± 0.1 % dose/g
Stomach % dose/g (2 min after injection): 0.740 ± 0.02 % dose/g
Blood % dose/g (10 min after injection): 0.147 ± 0.02 % dose/g
Bone % dose/g (10 min after injection): 0.204 ± 0.00 % dose/g
Brain % dose/g (10 min after injection): 0.019 ± 0.00 % dose/g
Heart % dose/g (10 min after injection): 2.506 ± 0.10 % dose/g
Intestine % dose/g (10 min after injection): 10.959 ± 1.64 % dose/g
Kidney % dose/g (10 min after injection): 6.559 ± 0.928 % dose/g
Liver % dose/g (10 min after injection): 1.719 ± 0.14 % dose/g
Lung % dose/g (10 min after injection): 0.725 ± 0.104 % dose/g
Muscle % dose/g (10 min after injection): 0.252 ± 0.01 % dose/g
Spleen % dose/g (10 min after injection): 0.856 ± 0.12 % dose/g
Stomach % dose/g (10 min after injection): 0.852 ± 0.118 % dose/g
Blood % dose/g (30 min after injection): 0.098 ± 0.01 % dose/g
Bone % dose/g (30 min after injection): 0.230 ± 0.04 % dose/g
Brain % dose/g (30 min after injection): 0.012 ± 0.00 % dose/g
Heart % dose/g (30 min after injection): 2.551 ± 0.10 % dose/g
Intestine % dose/g (30 min after injection): 10.201 ± 1.28 % dose/g
Kidney % dose/g (30 min after injection): 5.354 ± 1.00 % dose/g
Liver % dose/g (30 min after injection): 0.732 ± 0.08 % dose/g
Lung % dose/g (30 min after injection): 0.446 ± 0.00 % dose/g
Muscle % dose/g (30 min after injection): 0.273 ± 0.05 % dose/g
Spleen % dose/g (30 min after injection): 0.550 ± 0.06 % dose/g
Stomach % dose/g (30 min after injection): 1.511 ± 0.39 % dose/g
Blood % dose/g (1 hr after injection): 0.071 ± 0.00 % dose/g
Bone % dose/g (1 hr after injection): 0.099 ± 0.00 % dose/g
Brain % dose/g (1 hr after injection): 0.014 ± 0.00 % dose/g
Heart % dose/g (1 hr after injection): 2.155 ± 0.29 % dose/g
Intestine % dose/g (1 hr after injection): 5.447 ± 0.87 % dose/g
Kidney % dose/g (1 hr after injection): 4.127 ± 0.178 % dose/g
Liver % dose/g (1 hr after injection): 0.500 ± 0.01 % dose/g
Lung % dose/g (1 hr after injection): 0.329 ± 0.05 % dose/g
Muscle % dose/g (1 hr after injection): 0.236 ± 0.04 % dose/g
Spleen % dose/g (1 hr after injection): 0.238 ± 0.02 % dose/g
Stomach % dose/g (1 hr after injection): 0.892 ± 0.085 % dose/g
Blood % dose/g (2 hr after injection): 0.049 ± 0.00 % dose/g
Bone % dose/g (2 hr after injection): 0.121 ± 0.00 % dose/g
Brain % dose/g (2 hr after injection): 0.009 ± 0.00 % dose/g
Heart % dose/g (2 hr after injection): 2.721 ± 0.06 % dose/g
Intestine % dose/g (2 hr after injection): 2.720 ± 0.11 % dose/g
Kidney % dose/g (2 hr after injection): 3.139 ± 0.20 % dose/g
Liver % dose/g (2 hr after injection): 0.164 ± 0.04 % dose/g
Lung % dose/g (2 hr after injection): 0.312 ± 0.2 % dose/g
Muscle % dose/g (2 hr after injection): 0.268 ± 0.88 % dose/g
Spleen % dose/g (2 hr after injection): 0.300 ± 0.05 % dose/g
Stomach % dose/g (2 hr after injection): 1.521 ± 0.50 % dose/g
Blood % dose/g (4 hr after injection): 0.030 ± 0.00 % dose/g
Bone % dose/g (4 hr after injection): 0.079 ± 0.01 % dose/g
Brain % dose/g (4 hr after injection): 0.009 ± 0.00 % dose/g
Heart % dose/g (4 hr after injection): 2.503 ± 0.13 % dose/g
Intestine % dose/g (4 hr after injection): 1.810 ± 0.716 % dose/g
Kidney % dose/g (4 hr after injection): 2.536 ± 0.12 % dose/g
Liver % dose/g (4 hr after injection): 0.155 ± 0.00 % dose/g
Lung % dose/g (4 hr after injection): 0.219 ± 0.01 % dose/g
Muscle % dose/g (4 hr after injection): 0.245 ± 0.031 % dose/g
Spleen % dose/g (4 hr after injection): 0.195 ± 0.02 % dose/g
Stomach % dose/g (4 hr after injection): 0.485 ± 0.07 % dose/g
elimination from kidney and liver (rats): relatively rapidly eliminated
washout from lung and blood (rats): rapidly washed out
accumulation in heart (rats, throughout the measurement): very large amount
